Starred links: 1 amine or outer side, 2 acyl side, 3 side chain; linkers in the order of their positions; H or OH if unused. Positions of bridges follow the written chain, without caps; N, C: chain ends. Residues, ends and D or L forms follow the SMILES beside them. X4 = C#CCON=C(C)C([*:1])[*:2]
Experiments:
α-chymotrypsin = biological target: T1, α-chymotrypsin (Bos taurus, UniProt P00766); assay: Resistance to α-chymotrypsin digestion followed by reverse-phase HPLC; assay type: in vitro ADME, bovine; details: for change of HPLC peak after addition of α-chymotrypsin: α-chymotrypsin 1/10 weight ratio, 37° C.; for resistance to protease (FIG. 10): α-chymotrypsin
T1 construct: purchased MP Biomedicals; host or cells: bovine pancreas
Method: For evaluation of stability of a peptide by crosslinking reaction, resistivity of α-chymotrypsin (derived from bovine pancreas, manufactured by MP Biomedicals) to protease decomposition was evaluated with oxytocin crosslinked by 2,2-dichloroacetophenone. Crosslinking of oxytocin by 2,2-dichloroacetophenone was performed in the same manner with replacement of 1.1-dichloroacetone in Example 11 by 2,2-dichloroacetophenone, and an objective product was taken by reverse-phase HPLC. Specifically, 10 mg (10 μmol) of oxytocin acetate was dissolved in 3 mL of a 0.1 M HEPES hydrochloric acid buffer (pH 8.0), the solution was mixed with 2 mL of a 0.1 M HEPES hydrochloric acid buffer (pH 8.0) containing 57.4 mg (200 μmol) of TCEP-HCl, and the mixture was stirred for 1 hour. Next, 8.3 mg (44 μmol) of 2,2-dichloroacetophenone dissolved in 0.44 mL of acetonitrile was added and mixed, and the mixture was stirred at room temperature for 1 hour. The resulting sample was applied to an InertSustain C18 column (5 μm, 14×250 mm, manufactured by GL Sciences Inc.) (flow rate 5 mL/min) connected to LC-Forte (manufactured by YMC). The elution was performed at a linear gradient from 4% to 70% (containing 0.1% formic acid). An objective product was taken, and freeze-dried after removal of acetonitrile at a negative pressure.
Evaluation was made with oxytocin-OX and an oxytocin SH reduced form (oxytocin-RD) shown by the following formula A3 used as comparison subjects. In other words, an oxytocin solution obtained by dissolution in a 0.1 M phosphate buffer (pH 7.0) at 0.5 mg/mL was adopted as oxytocin-OX, and a substance obtained after a lapse of 30 minutes from addition of an oxytocin solution obtained by dissolution in a 0.1 M phosphate buffer (pH 7.0) containing 0.5 mg/mL TCEP, at 0.5 mg/mL, was adopted as oxytocin-RD. To 200 μL of each of these solutions was 10 μL ( 1/10 on weight ratio to oxytocin) of 1 mg/mL α-chymotrypsin, and the resultant was subjected to incubation at 37° C. and analysis by reverse-phase HPLC. In the case of blank, a phosphate buffer was added instead of α-chymotrypsin.
A substance obtained after a lapse of 30 minutes from dissolution of 0.5 mg/mL oxytocin-DP purified, in a 0.1 M phosphate buffer (pH 7.0) containing 0.5 mg/mL TCEP, was adopted as a sample, and similarly α-chymotrypsin was added and analysis by reverse-phase HPLC was made.

human serum-derived IgG = assay: Dynamic binding capacity (DBC) measurement and alkali resistance evaluation of peptide-immobilized column; details: for Dynamic binding capacity: 10% breakthrough
Method: Five mL of 1 mM hydrochloric acid was sent to an NHS-activated prepacked column having a volume of 1 mL, and an isopropanol solution in the column was removed. Next, a 10.0 mg/mL peptide solution (dissolved in 100 μL of DMSO) was diluted with a coupling solution (20 mM carbonate buffer, 50 mM sodium chloride, pH 8.3) by 10-fold, 1 mL of the dilution liquid was sent, and immobilization was performed at room temperature for 4 hours. Thereafter, unreacted NHS was blocked by 5 mL of 1 M Tris (pH 8.0) at room temperature for 1 hour. Thereafter, washing with 5 mL of an aqueous 0.1 N NaOH solution was made. Finally, 10 mL of a PBS solution (20 mM phosphate buffer, 150 mM sodium chloride, pH 7.4) was sent, and used in chromatography evaluation.
A column where the amount of immobilization of a peptide was 1 mg was produced by the same method as described above. The column produced was equilibrated with PBS, and 1 mg/mL human serum-derived IgG (manufactured by Sigma-Aldrich Co. LLC) dissolved in PBS was sent at a flow rate of 1 mL/min (retention time 1 min). DBC was indicated as one determined from the amount of a protein added at the time of point where 10% of the absorbance at 280 nm of the sample added was leaked.
Next, 5 mL of an aqueous 0.1 N sodium hydroxide solution was sent to the 1-mL column where 1 mg of the peptide was immobilized. Thereafter, washing with PBS was performed. This cycle was repeated 30 times for the 1,1-dichloroacetone-crosslinked cyclic peptide, and was repeated 10 times for the 1,1-dichloropinacolin-crosslinked cyclic peptide. DBC measurement was performed at a flow rate of 1 mL/min at the 1st to 5th and 10th times of the cycles, and further performed at the 20th and 30th times of the cycles with respect to the 1,1-dichloroacetone-crosslinked cyclic peptide, and thus alkali resistance was evaluated. The variation in DBC was determined based on the measurement results under the assumption that DBC immediately after column production was 100% according to Table 2.
Five mL of a 0.1 M sodium hydroxide solution was sent to the produced 1-mL column where the amount of immobilization of a peptide was 1 mg, and thereafter washing with 5 mL of PBS was performed. These operations were defined as one cycle and treatment of washing with aqueous NaOH solution/washing with PBS was performed 1 to 30 times, and thereafter DBC measurement was performed at a flow rate of 1 mL/min at the intended number of times (1, 2, 3, 4, 5, 10, 20, 30 times).

human IgG1 = human IgG1 (Homo sapiens, UniProt P01857); assay: SPR (BIAcore T200) measurement of binding affinity of crosslinked cyclic peptide to immobilized IgG
Method: The affinity analysis was performed by the following method. First, a CM5 sensor chip was installed on BIAcoreT200 (GE healthcare), and 0.4 M 1-ethyl-3-(3-dimethylaminopropyl)carbodiimide (EDC) and a 0.1 M sulfo-N-hydroxysuccinimide (sulfo-NHS) solution mixed in equivalent amounts were injected to the sensor chip at a flow rate of […], to thereby activate the sensor chip. Thereafter, IgG was immobilized onto the sensor chip under a condition of a pH of 5.5 (10 mM Na acetate). An HBS-EP buffer (10 mM HEPES, 150 mM NaCl, 0.005% Tween 20, 3 mM EDTA, pH 7.4) was used in measurement, and 15.625, 31.2, 62.5, 125, 250, and 500 nM of peptides were each injected at a flow rate of […] for 180 seconds, to thereby monitor binding reaction. When dissociation reaction was measured, only the buffer was injected for 600 seconds. The interaction parameter was analyzed with BIAevaluation T100 software.
IgG-binding peptide derivatives compared and evaluated are illustrated in FIG. 1.

human IgG1 (human) [1] = assay: SPR, BIAcore T200, IgG immobilised on CM5 chip, peptide as analyte
human IgG1 (human) [2] = assay: SPR, BIAcore T200, IgG immobilised on CM5 chip
[3] = biological target: human serum-derived IgG (manufactured by Sigma-Aldrich Co. LLC); assay: peptide-immobilised column, human serum IgG, 10% breakthrough
human IgG1 (human) [4] = assay: SPR, same affinity measurement as in Example 4
[5] = 0.1 M phosphate buffer pH 7.0 containing 0.5 mg/mL TCEP
[6] = in the presence of reducing agent TCEP
[7] = number of washing times with 0.1 N NaOH: 1

human IgG1, sequence (P01857 1-328 limits assumed): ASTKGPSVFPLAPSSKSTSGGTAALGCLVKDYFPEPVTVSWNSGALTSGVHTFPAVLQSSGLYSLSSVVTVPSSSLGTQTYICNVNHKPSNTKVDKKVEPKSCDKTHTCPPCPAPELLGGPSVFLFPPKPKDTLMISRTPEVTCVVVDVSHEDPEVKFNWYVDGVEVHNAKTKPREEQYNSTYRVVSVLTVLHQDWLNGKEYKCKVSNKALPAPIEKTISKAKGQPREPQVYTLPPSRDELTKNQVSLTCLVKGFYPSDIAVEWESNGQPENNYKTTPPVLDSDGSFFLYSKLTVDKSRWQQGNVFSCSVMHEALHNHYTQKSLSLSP

CCC(C)C1NC(=O)C(Cc2ccc(O)cc2)NC(=O)C(N)CSSCC(C(=O)N2CCCC2C(=O)NC(CC(C)C)C(=O)NCC(N)=O)NC(=O)C(CC(N)=O)NC(=O)C(CCC(N)=O)NC1=O (stereo not drawn) [oxytocin-OX, Cys-Tyr-Ile-Gln-Asn-Cys-Pro-Leu-Gly-NH2]
change of HPLC peak after addition of α-chymotrypsin (α-chymotrypsin; 0.1 M phosphate buffer pH 7.0, no TCEP, 15 minutes to 2 hours): no change of any peak was observed
resistance to protease (FIG. 10) (α-chymotrypsin; no TCEP): high protease resistance

CCC(C)C(NC(=O)C(Cc1ccc(O)cc1)NC(=O)C(N)CS)C(=O)NC(CCC(N)=O)C(=O)NC(CC(N)=O)C(=O)NC(CS)C(=O)N1CCCC1C(=O)NC(CC(C)C)C(=O)NCC(N)=O (stereo not drawn) [oxytocin-RD]
change of HPLC peak after addition of α-chymotrypsin (α-chymotrypsin; [5]): any peak disappeared after only 10 minutes
resistance to protease (FIG. 10) (α-chymotrypsin; [6]): extremely low

CC(C)C[C@@H]1NC(=O)[C@H](CCC(=O)O)NC(=O)CNC(=O)[C@H](CCCNC(=N)N)NC(=O)[C@H](Cc2c[nH]cn2)NC(=O)[C@H](Cc2ccc(O)cc2)NC(=O)[C@H](C)NC(=O)[C@@H](NC(=O)[C@H](CC(=O)O)NC(=O)[C@@H]2CCCN2C(=O)CNC(=O)[C@H](CO)NC(=O)CNC(=O)CNC(=O)[C@H](CO)NC(=O)CN)CSSC[C@@H](C(=O)N[C@H](C(=O)N[C@@H](Cc2ccccc2)C(=O)N[C@@H](Cc2c[nH]cn2)C(=O)O)[C@@H](C)O)NC(=O)[C@H](Cc2c[nH]c3ccccc23)NC(=O)[C@H](C(C)C)NC1=O [IgG-BP-LongGS Original] (H-GSGGSGPDCAYHRGELVWCTFH-OH; disulfide 9-19; N-terminus and C-terminus assumed)
change in amount of binding of the antibody to the column by alkali washing (FIG. 2) (human serum-derived IgG; 0.1 M NaOH washing/PBS washing, 1 to 30 cycles): reduced by alkali washing
value of DBC, by itself, of peptide-immobilized column (human serum-derived IgG; before repeated alkali washing, 1 mL/min): 17.24 mg/mL
initial value of DBC of peptide column (human serum-derived IgG; initial value, 1 mg peptide on 1-mL column, 1 mL/min): 17.24 mg/mL-column
Variation (%) in dynamic binding capacity (human serum-derived IgG; [7]): 100.0%
Variation (%) in maximum binding capacity (human serum-derived IgG; [7]): 100.0%
Maximum binding capacity (human serum-derived IgG; number of washing times with 0.1 N NaOH: 1, 1 mg peptide on 1-mL column): 12.37 mg
Dynamic binding capacity (human serum-derived IgG; number of washing times with 0.1 N NaOH: 1, 1 mL/min): 17.24 mg/mL
Variation (%) in maximum binding capacity (human serum-derived IgG; number of washing times with 0.1 N NaOH: 5): 49.2%
Maximum binding capacity (human serum-derived IgG; number of washing times with 0.1 N NaOH: 5, 1 mg peptide on 1-mL column): 6.09 mg
Dynamic binding capacity (human serum-derived IgG; number of washing times with 0.1 N NaOH: 5, 1 mL/min): 8.74 mg/mL
Variation (%) in dynamic binding capacity (human serum-derived IgG; number of washing times with 0.1 N NaOH: 5, listed as IgG-BP-LGS): 50.7%
Variation (%) in dynamic binding capacity (human serum-derived IgG; number of washing times with 0.1 N NaOH: 5, listed as original IgG-binding peptide-immobilized column having a disulfide bond): ≤ 50%
kd (human IgG1; SPR, IgG immobilized on CM5 chip, HBS-EP pH 7.4): 0.019
ka (human IgG1; SPR, IgG immobilized on CM5 chip, HBS-EP pH 7.4, in M-1 s-1 (unit assumed)): 2.37E+06

C#CCON=C(C)C1SC[C@H](NC(=O)[C@H](CC(=O)O)NC(=O)[C@@H]2CCCN2C(=O)CNC(=O)[C@H](CO)NC(=O)CNC(=O)CNC(=O)[C@H](CO)NC(=O)CN)C(=O)N[C@@H](C)C(=O)N[C@@H](Cc2ccc(O)cc2)C(=O)N[C@@H](Cc2c[nH]cn2)C(=O)N[C@@H](CCCNC(=N)N)C(=O)NCC(=O)N[C@@H](CCC(=O)O)C(=O)N[C@@H](CC(C)C)C(=O)N[C@@H](C(C)C)C(=O)N[C@@H](Cc2c[nH]c3ccccc23)C(=O)N[C@H](C(=O)N[C@H](C(=O)N[C@@H](Cc2ccccc2)C(=O)N[C@@H](Cc2c[nH]cn2)C(N)=O)[C@@H](C)O)CS1 (stereo partly drawn) (H-GSGGSGPDCAYHRGELVWCTFH-NH2; linker 9-19 via X4; C-terminus assumed)
reduction of affinity as compared with the original peptide (human IgG1; Kd relative to original disulfide IgG-binding peptide): about 42 fold
Kd (human IgG1; SPR, human IgG1): 334 nM

CCC(C)C1NC(=O)C(Cc2ccc(O)cc2)NC(=O)C(N)CSC(C(=O)c2ccccc2)SCC(C(=O)N2CCCC2C(=O)NC(CC(C)C)C(=O)NCC(N)=O)NC(=O)C(CC(N)=O)NC(=O)C(CCC(N)=O)NC1=O (stereo not drawn) [oxytocin-DP]
change of HPLC peak after addition of α-chymotrypsin (α-chymotrypsin; [5]): no decrease was observed
resistance to protease (FIG. 10) (α-chymotrypsin; [6]): high resistance

CCC(C)C1NC(=O)C(Cc2ccc(O)cc2)NC(=O)C(N)CS/C(=C/c2ccccc2)SCC(C(=O)N2CCCC2C(=O)NC(CC(C)C)C(=O)NCC(N)=O)NC(=O)C(CC(N)=O)NC(=O)C(CCC(N)=O)NC1=O (stereo not drawn) [oxytocin-DP-RDH]
change of HPLC peak after addition of α-chymotrypsin (α-chymotrypsin; [5]): no decrease was observed
resistance to protease (FIG. 10) (α-chymotrypsin; [6]): high resistance

B1: 1,3-dichloroacetone-crosslinked cyclic peptide of IgG-BP-LongGS (peptide)
peptide: GSGGSGPDCAYHRGELVWCTFH
modifications: the thiol groups of the two Cys residues crosslinked with 1,3-dichloroacetone in place of the disulfide bond
Kd (human IgG1 (human) [1]): 4900 nM
fold reduction of affinity against the original peptide (human IgG1 (human) [2]): 500 fold
initial value of DBC [3]: 2.3 mg/mL-column

B2: alkyne functional group-introduced, crosslinked and cyclized peptide (1,1-dichloroacetone-crosslinked IgG-BP-LongGS reacted with O-2-Propynylhydroxylamine) (peptide)
peptide: GSGGSGPDCAYHRGELVWCTFH
modifications: not fully specified; the two Cys thiols crosslinked with 1,1-dichloroacetone; the crosslink reacted with O-2-Propynylhydroxylamine hydrochloride to introduce an alkyne group
Kd (human IgG1 (human) [4]): 334 nM
fold reduction of affinity against the original peptide (human IgG1 (human) [4]): 42 fold

B3: 2,2-dichloroacetophenone-crosslinked cyclic peptide of IgG-BP-LongGS (peptide)
peptide: GSGGSGPDCAYHRGELVWCTFH
modifications: the thiol groups of the two Cys residues crosslinked with 2,2-dichloroacetophenone in place of the disulfide bond; Fmoc removed
Kd (human IgG1 (human) [1]): 6.4 nM

Source: patent US20240391950A1, “PEPTIDE CROSSLINKING AGENT AND CROSSLINKED PEPTIDE WHICH IS CROSSLINKED USING SAID CROSSLINKING AGENT” (Kagoshima University, priority 2020, published 2024)
